How the values were obtained:
ACK1 = ACK1 (Homo sapiens, UniProt Q07912); experiment: Inhibitory activity against ACK1 kinase (IC50); assay type: biochemical
Protocol: The inhibitory activities of the compounds of the present disclosure against two kinases, GCK and ACK1, were measured, and the IC50 values thereof were calculated.

OCI-AML3 (N-Ras Q61L) = experiment: Proliferation inhibitory activity, OCI-AML3; assay type: cell-based, human; details: Homo sapiens, OCI-AML-3
Protocol: The inhibitory activities of the compounds of the present disclosure against the proliferation of the mt-NRAS (G12D) Ba/F3 and OCI-AML3 (mt-NRAS) cell lines were measured and the GI50 values thereof were calculated.

ABL1 = ABL1 (Homo sapiens, UniProt P00519); experiment: Kinase panel biochemical assay, ABL1; details: single concentration of 1 μM, read-out: percent inhibition of kinase
Protocol: (§1) As a test compound, Compound No. 55 was used. The percent inhibition of each kinase when treated with the test compound at a single concentration of 1 μM was measured, and the residual enzyme activity values (%) of the kinases were calculated. Kinases whose calculated residual enzyme activity values (%) was 30% or less (i.e., kinases inhibited by 70% or more) are as follows: […]

ABL2 = ABL2 (Homo sapiens, UniProt P42684); experiment: Kinase panel biochemical assay, ABL2; details: single concentration of 1 μM, read-out: percent inhibition of kinase
Protocol: as §1

BRK = BRK (Homo sapiens, UniProt Q13882); experiment: Kinase panel biochemical assay, BRK; details: single concentration of 1 μM, read-out: percent inhibition of kinase
Protocol: as §1

c-Src = c-Src (Homo sapiens, UniProt P12931); experiment: Kinase panel biochemical assay, c-Src; details: single concentration of 1 μM, read-out: percent inhibition of kinase
Protocol: as §1

EPHA4 = EPHA4 (Homo sapiens, UniProt P54764); experiment: Kinase panel biochemical assay, EPHA4; details: single concentration of 1 μM, read-out: percent inhibition of kinase
Protocol: as §1

EPHA6 = EPHA6 (Homo sapiens, UniProt Q9UF33); experiment: Kinase panel biochemical assay, EPHA6; details: single concentration of 1 μM, read-out: percent inhibition of kinase
Protocol: as §1

EPHA8 = EPHA8 (Homo sapiens, UniProt P29322); experiment: Kinase panel biochemical assay, EPHA8; details: single concentration of 1 μM, read-out: percent inhibition of kinase
Protocol: as §1

EPHB2 = EPHB2 (Homo sapiens, UniProt P29323); experiment: Kinase panel biochemical assay, EPHB2; details: single concentration of 1 μM, read-out: percent inhibition of kinase
Protocol: as §1

EPHB3 = EPHB3 (Homo sapiens, UniProt P54753); experiment: Kinase panel biochemical assay, EPHB3; details: single concentration of 1 μM, read-out: percent inhibition of kinase
Protocol: as §1

FGFR2 = FGFR2 (Homo sapiens, UniProt P21802); experiment: Kinase panel biochemical assay, FGFR2; details: single concentration of 1 μM, read-out: percent inhibition of kinase
Protocol: as §1

FGFR4 = FGFR4 (Homo sapiens, UniProt P22455); experiment: Kinase panel biochemical assay, FGFR4; details: single concentration of 1 μM, read-out: percent inhibition of kinase
Protocol: as §1

FLT1 = FLT1 (Homo sapiens, UniProt P17948); experiment: Kinase panel biochemical assay, FLT1; details: single concentration of 1 μM, read-out: percent inhibition of kinase
Protocol: as §1

FLT4 = FLT4 (Homo sapiens, UniProt P35916); experiment: Kinase panel biochemical assay, FLT4; details: single concentration of 1 μM, read-out: percent inhibition of kinase
Protocol: as §1

FRK = FRK (Homo sapiens, UniProt P42685); experiment: Kinase panel biochemical assay, FRK; details: single concentration of 1 μM, read-out: percent inhibition of kinase
Protocol: as §1

GCK = target: T1, GCK (Homo sapiens, UniProt Q12851); experiment: Kinase panel biochemical assay, GCK; details: single concentration of 1 μM, read-out: percent inhibition of kinase
T1 sequence (Q12851 1-820): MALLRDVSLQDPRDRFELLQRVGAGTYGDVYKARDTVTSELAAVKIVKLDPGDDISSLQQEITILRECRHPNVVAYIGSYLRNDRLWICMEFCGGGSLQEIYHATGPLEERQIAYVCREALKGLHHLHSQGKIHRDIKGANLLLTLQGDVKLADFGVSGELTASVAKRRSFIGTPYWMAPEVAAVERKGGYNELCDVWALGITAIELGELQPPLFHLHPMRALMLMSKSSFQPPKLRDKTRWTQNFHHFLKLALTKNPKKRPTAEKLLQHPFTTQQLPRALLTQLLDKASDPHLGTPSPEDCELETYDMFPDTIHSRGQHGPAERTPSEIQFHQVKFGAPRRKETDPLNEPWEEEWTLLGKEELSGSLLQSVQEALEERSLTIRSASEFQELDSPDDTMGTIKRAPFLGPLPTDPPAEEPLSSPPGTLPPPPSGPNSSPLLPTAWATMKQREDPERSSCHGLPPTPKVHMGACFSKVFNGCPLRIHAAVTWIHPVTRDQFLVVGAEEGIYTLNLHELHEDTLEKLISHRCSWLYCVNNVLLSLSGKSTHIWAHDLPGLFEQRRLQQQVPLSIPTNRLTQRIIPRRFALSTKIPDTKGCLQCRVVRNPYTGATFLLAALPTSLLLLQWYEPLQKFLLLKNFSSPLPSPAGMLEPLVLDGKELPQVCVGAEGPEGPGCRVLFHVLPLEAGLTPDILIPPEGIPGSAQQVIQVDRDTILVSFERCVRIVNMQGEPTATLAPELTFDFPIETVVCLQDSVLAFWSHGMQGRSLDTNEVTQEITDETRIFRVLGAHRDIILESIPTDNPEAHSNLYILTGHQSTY
Protocol: as §1

HCK = HCK (Homo sapiens, UniProt P08631); experiment: Kinase panel biochemical assay, HCK; details: single concentration of 1 μM, read-out: percent inhibition of kinase
Protocol: as §1

KDR = KDR (Homo sapiens, UniProt P35968); experiment: Kinase panel biochemical assay, KDR; details: single concentration of 1 μM, read-out: percent inhibition of kinase
Protocol: as §1

KHS = KHS (Homo sapiens, UniProt Q9Y4K4); experiment: Kinase panel biochemical assay, KHS; details: single concentration of 1 μM, read-out: percent inhibition of kinase
Protocol: as §1

LCK = LCK (Homo sapiens, UniProt P06239); experiment: Kinase panel biochemical assay, LCK; details: single concentration of 1 μM, read-out: percent inhibition of kinase
Protocol: as §1

LYN = LYN (Homo sapiens, UniProt P07948); experiment: Kinase panel biochemical assay, LYN; details: single concentration of 1 μM, read-out: percent inhibition of kinase
Protocol: as §1

p38a = p38a (Homo sapiens, UniProt Q16539); experiment: Kinase panel biochemical assay, p38a; details: single concentration of 1 μM, read-out: percent inhibition of kinase
Protocol: as §1

p38b = p38b (Homo sapiens, UniProt Q15759); experiment: Kinase panel biochemical assay, p38b; details: single concentration of 1 μM, read-out: percent inhibition of kinase
Protocol: as §1

PDGFRa = PDGFRa (Homo sapiens, UniProt P16234); experiment: Kinase panel biochemical assay, PDGFRa; details: single concentration of 1 μM, read-out: percent inhibition of kinase
Protocol: as §1

RIPK3 = RIPK3 (Homo sapiens, UniProt Q9Y572); experiment: Kinase panel biochemical assay, RIPK3; details: single concentration of 1 μM, read-out: percent inhibition of kinase
Protocol: as §1

TIE2 = TIE2 (Homo sapiens, UniProt Q02763); experiment: Kinase panel biochemical assay, TIE2; details: single concentration of 1 μM, read-out: percent inhibition of kinase
Protocol: as §1

TYK2 = TYK2 (Homo sapiens, UniProt P29597); experiment: Kinase panel biochemical assay, TYK2; details: single concentration of 1 μM, read-out: percent inhibition of kinase
Protocol: as §1

Chain of EPHA8 (P29322 28-1005): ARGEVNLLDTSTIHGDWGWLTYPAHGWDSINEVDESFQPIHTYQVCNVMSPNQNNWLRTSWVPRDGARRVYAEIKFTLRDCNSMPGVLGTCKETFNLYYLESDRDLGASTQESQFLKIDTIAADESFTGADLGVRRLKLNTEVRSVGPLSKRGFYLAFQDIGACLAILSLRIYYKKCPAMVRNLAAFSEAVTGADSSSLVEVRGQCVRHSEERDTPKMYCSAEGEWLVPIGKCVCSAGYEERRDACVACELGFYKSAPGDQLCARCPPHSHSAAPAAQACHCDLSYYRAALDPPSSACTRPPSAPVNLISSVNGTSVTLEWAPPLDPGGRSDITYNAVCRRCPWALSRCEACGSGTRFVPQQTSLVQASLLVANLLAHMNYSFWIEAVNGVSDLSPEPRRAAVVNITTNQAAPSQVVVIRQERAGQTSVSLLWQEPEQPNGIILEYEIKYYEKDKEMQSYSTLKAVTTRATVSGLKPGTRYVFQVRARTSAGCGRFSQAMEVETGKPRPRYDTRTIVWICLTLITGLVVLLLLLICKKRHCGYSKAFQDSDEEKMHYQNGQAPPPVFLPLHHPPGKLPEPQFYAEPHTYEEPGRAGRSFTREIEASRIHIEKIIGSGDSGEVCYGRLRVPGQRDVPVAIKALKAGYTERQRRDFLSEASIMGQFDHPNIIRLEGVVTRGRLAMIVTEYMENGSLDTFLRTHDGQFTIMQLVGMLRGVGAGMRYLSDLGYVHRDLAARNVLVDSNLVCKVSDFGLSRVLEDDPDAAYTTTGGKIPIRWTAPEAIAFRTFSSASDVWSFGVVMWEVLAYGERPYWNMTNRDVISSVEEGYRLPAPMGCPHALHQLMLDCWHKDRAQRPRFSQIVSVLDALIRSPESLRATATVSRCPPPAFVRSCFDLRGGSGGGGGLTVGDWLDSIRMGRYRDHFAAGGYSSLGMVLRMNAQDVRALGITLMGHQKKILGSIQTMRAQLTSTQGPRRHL
Chain of FGFR2 (P21802 22-821): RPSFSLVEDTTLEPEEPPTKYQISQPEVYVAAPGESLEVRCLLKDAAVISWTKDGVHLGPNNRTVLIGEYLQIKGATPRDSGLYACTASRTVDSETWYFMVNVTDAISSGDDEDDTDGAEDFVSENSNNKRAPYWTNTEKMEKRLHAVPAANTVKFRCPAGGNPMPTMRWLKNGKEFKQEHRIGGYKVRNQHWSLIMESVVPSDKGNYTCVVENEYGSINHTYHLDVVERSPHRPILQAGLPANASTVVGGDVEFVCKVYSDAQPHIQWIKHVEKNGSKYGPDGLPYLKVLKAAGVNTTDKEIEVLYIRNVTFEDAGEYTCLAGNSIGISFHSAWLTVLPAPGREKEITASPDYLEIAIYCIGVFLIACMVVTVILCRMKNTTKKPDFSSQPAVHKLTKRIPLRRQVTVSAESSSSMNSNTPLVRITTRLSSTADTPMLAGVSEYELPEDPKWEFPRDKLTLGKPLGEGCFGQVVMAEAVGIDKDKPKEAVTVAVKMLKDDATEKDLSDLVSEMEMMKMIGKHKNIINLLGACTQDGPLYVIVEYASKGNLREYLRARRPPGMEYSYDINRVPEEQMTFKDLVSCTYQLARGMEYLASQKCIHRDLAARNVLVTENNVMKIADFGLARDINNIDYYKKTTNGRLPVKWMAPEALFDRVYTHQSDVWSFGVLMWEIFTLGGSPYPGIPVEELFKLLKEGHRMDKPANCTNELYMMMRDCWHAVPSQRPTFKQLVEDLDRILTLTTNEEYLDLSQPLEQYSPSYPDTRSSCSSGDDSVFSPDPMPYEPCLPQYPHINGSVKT
Chain of HCK (P08631 whole entry): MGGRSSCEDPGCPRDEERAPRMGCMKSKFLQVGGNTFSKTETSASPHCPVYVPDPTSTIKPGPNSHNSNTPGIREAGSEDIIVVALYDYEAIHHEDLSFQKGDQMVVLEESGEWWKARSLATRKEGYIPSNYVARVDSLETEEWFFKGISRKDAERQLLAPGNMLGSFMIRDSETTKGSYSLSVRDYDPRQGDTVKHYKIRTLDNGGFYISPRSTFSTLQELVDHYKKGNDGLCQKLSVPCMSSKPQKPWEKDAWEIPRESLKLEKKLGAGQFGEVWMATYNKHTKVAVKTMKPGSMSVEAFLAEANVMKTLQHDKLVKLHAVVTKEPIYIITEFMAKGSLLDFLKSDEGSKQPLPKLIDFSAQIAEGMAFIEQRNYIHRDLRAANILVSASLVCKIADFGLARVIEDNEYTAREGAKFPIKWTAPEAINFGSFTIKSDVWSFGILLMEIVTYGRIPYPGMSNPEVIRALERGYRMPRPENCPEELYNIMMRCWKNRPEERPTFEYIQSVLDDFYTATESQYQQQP
Chain of TIE2 (Q02763 23-1124): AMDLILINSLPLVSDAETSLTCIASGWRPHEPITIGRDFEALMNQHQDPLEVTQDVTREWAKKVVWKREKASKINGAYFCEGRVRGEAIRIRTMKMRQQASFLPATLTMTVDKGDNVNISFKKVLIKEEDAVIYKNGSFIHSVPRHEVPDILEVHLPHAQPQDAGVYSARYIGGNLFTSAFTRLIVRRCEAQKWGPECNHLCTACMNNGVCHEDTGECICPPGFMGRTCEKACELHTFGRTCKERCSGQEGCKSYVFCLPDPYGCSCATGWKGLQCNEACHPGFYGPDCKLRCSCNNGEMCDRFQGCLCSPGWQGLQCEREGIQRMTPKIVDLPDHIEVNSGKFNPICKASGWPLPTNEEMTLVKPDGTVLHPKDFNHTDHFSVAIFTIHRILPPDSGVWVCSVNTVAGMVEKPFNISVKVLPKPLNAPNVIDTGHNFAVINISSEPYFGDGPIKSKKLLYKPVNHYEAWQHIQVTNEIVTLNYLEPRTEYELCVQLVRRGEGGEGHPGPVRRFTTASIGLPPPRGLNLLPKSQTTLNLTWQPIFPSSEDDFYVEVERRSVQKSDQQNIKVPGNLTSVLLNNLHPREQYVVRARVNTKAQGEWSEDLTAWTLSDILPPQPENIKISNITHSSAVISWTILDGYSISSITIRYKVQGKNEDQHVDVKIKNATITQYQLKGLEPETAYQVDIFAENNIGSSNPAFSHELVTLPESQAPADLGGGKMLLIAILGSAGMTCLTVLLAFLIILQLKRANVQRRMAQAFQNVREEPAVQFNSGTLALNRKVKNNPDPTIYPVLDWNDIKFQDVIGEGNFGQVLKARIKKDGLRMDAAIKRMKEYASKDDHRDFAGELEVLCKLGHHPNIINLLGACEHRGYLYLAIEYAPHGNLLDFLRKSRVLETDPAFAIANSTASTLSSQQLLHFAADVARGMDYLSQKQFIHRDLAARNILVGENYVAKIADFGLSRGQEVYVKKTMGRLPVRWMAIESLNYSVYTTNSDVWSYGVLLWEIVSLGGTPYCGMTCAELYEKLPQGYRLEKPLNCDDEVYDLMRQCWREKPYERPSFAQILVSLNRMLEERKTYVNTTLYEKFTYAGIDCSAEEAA
Chain of FGFR4 (P22455 22-802): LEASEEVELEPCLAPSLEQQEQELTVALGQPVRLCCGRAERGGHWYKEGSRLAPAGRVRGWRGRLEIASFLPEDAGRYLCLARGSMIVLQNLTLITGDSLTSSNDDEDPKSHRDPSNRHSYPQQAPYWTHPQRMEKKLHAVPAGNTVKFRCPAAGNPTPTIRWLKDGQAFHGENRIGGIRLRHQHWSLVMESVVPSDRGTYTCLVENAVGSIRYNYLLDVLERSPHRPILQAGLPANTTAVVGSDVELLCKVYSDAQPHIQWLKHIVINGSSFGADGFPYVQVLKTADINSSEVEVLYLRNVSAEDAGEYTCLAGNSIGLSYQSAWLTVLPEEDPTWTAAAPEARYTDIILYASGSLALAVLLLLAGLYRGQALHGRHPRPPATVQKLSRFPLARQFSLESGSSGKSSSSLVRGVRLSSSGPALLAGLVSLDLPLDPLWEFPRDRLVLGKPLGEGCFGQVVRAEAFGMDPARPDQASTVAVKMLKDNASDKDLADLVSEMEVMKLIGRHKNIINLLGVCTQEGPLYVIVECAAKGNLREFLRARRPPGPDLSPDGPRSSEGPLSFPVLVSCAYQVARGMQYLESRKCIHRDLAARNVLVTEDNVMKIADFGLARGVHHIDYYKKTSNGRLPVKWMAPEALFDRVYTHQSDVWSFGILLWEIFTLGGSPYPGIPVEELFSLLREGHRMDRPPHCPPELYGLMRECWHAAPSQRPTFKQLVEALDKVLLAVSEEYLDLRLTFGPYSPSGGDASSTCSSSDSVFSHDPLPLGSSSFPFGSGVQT
Chain of BRK (Q13882 whole entry): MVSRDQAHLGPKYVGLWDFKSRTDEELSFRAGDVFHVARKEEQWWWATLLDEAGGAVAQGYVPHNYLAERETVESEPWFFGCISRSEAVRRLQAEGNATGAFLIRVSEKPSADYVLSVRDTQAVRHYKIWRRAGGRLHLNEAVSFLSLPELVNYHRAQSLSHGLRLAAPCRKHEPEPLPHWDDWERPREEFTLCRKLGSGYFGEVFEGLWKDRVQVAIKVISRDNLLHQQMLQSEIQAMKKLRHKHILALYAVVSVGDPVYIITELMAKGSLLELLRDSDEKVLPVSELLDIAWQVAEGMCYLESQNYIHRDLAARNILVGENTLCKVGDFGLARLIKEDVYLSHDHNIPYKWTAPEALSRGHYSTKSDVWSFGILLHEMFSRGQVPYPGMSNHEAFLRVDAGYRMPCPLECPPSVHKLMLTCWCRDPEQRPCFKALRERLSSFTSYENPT
Chain of p38b (Q15759 whole entry): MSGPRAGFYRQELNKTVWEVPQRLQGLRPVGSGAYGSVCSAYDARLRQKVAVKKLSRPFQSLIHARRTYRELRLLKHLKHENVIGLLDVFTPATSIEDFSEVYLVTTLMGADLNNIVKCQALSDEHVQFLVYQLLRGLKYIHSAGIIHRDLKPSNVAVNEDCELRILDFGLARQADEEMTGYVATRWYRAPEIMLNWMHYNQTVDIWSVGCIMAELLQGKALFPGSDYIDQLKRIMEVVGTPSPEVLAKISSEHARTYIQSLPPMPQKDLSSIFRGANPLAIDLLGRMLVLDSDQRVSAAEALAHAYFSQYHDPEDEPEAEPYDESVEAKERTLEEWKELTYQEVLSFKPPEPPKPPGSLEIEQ

IC50 (ACK1): 100 to 1000 nM | GI50 (OCI-AML3 (N-Ras Q61L)): < 0.5 µM | inhibition at 1 µM (ABL1): ≥ 70% | inhibition at 1 µM (ABL2): ≥ 70% | inhibition at 1 µM (BRK): ≥ 70% | inhibition at 1 µM (c-Src): ≥ 70% | inhibition at 1 µM (EPHA4): ≥ 70% | inhibition at 1 µM (EPHA6): ≥ 70% | inhibition at 1 µM (EPHA8): ≥ 70% | inhibition at 1 µM (EPHB2): ≥ 70% | inhibition at 1 µM (EPHB3): ≥ 70% | inhibition at 1 µM (FGFR2): ≥ 70% | inhibition at 1 µM (FGFR4): ≥ 70% | inhibition at 1 µM (FLT1): ≥ 70% | inhibition at 1 µM (FLT4): ≥ 70% | inhibition at 1 µM (FRK): ≥ 70% | inhibition at 1 µM (GCK): ≥ 70% | inhibition at 1 µM (HCK): ≥ 70% | inhibition at 1 µM (KDR): ≥ 70% | inhibition at 1 µM (KHS): ≥ 70% | inhibition at 1 µM (LCK): ≥ 70% | inhibition at 1 µM (LYN): ≥ 70% | inhibition at 1 µM (p38a): ≥ 70% | inhibition at 1 µM (p38b): ≥ 70% | inhibition at 1 µM (PDGFRa): ≥ 70% | inhibition at 1 µM (RIPK3): ≥ 70% | inhibition at 1 µM (TIE2): ≥ 70% | inhibition at 1 µM (TYK2): ≥ 70%
Structure (SMILES): Cc1ccc(NC(=O)c2cccc(C(F)(F)F)c2)cc1-c1cc2cnc(N)nc2c(=O)[nH]1 [Compound No. 55, N-(3-(2-amino-8-oxo-7,8-dihydropyrido[3,4-d]pyrimidin-6-yl)-4-methylphenyl)-3-(trifluoromethyl)benzamide]
